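Interpolation was linear, between the two tested concentrations surrounding the appropriate level; five concentrations were tested over 48 hours in 96-well plates. The concentration for 50% growth inhibition is given as GI50.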 Activity calls are given as the source filed them. No stated cut-off is given here; in the data, active = GI50 up to about 1.1 µM and inactive = higher.
Assays:
Assay in all cases: NCI anticancer screen, dose series, 48 h
RXF 393 = test system: RXF 393
SK-MEL-2 = test system: SK-MEL-2
SNB-19 = test system: SNB-19
SR = test system: SR
ACHN = test system: ACHN
SF-268 = test system: SF-268
SF-539 = test system: SF-539
HCT-116 = test system: HCT-116
NCI-H460 = test system: NCI-H460
A549 = test system: A549
SK-MEL-5 = test system: SK-MEL-5
HT-29 = test system: HT-29
HOP-62 = test system: HOP-62
EKVX = test system: EKVX
UACC-257 = test system: UACC-257
CCRF-CEM = test system: CCRF-CEM
SK-MEL-28 = test system: SK-MEL-28

Measured: GI50

C[n+]1c2ccccc2c(NC(CCC(N)=O)C(=O)O)c2ccccc21 (centres undefined)
inactive: RXF 393 > 100 µM | SK-MEL-2 > 100 µM | SNB-19 > 100 µM | SR > 100 µM | ACHN > 100 µM | SF-268 > 100 µM | SF-539 > 100 µM | HCT-116 > 100 µM | NCI-H460 > 100 µM | A549 > 100 µM | SK-MEL-5 > 100 µM | HT-29 > 100 µM | HOP-62 > 100 µM | EKVX > 100 µM | UACC-257 > 100 µM

CC(=O)OCC1OC(n2c(=O)n(-c3ccccc3)c(=O)c3cc(Br)cc(Br)c32)C(OC(C)=O)C(OC(C)=O)C1OC(C)=O (centres undefined)
inactive: RXF 393 48.1 µM | SK-MEL-2 > 100 µM | SNB-19 > 100 µM | CCRF-CEM > 100 µM | ACHN > 100 µM | SF-268 > 100 µM | SF-539 > 100 µM | HCT-116 > 100 µM | NCI-H460 > 100 µM | A549 > 100 µM | SK-MEL-5 > 100 µM | HT-29 > 100 µM | HOP-62 88.7 µM | SK-MEL-28 > 100 µM | EKVX > 100 µM | UACC-257 > 100 µM

Cc1cc2c(cc1C)[n+]([O-])c(C(=O)C/C(=N/NC(=O)c1ccccc1O)C(=O)Nc1ccccc1C(C)C)c(C)[n+]2[O-]
inactive: RXF 393 > 100 µM | SK-MEL-2 > 100 µM | SNB-19 > 100 µM | CCRF-CEM 27.3 µM | ACHN > 100 µM | SF-268 68.2 µM | SF-539 > 100 µM | HCT-116 > 100 µM | NCI-H460 61.8 µM | A549 > 100 µM | SK-MEL-5 > 100 µM | HT-29 > 100 µM | HOP-62 > 100 µM | SK-MEL-28 > 100 µM | EKVX > 100 µM | UACC-257 > 100 µM

COc1ccc(-c2oc3cc(O)c(OC)c(O)c3c(=O)c2OC2OC(CO)C(O)C(O)C2O)cc1 (centres undefined)
inactive: SK-MEL-2 > 100 µM | SNB-19 > 100 µM | CCRF-CEM > 100 µM | ACHN 91.2 µM | SF-539 > 100 µM | HCT-116 > 100 µM | NCI-H460 43.3 µM | A549 > 100 µM | SK-MEL-5 > 100 µM | HT-29 > 100 µM | SK-MEL-28 > 100 µM | EKVX > 100 µM

COc1cc(/C=C(\C#N)c2ccccc2)cc(OC)c1
inactive: SK-MEL-2 73.6 µM | SNB-19 > 100 µM | CCRF-CEM 30.7 µM | SR 36.1 µM | ACHN 60.5 µM | SF-268 40.9 µM | SF-539 41.1 µM | HCT-116 49.5 µM | NCI-H460 42.6 µM | A549 28.6 µM | SK-MEL-5 41.1 µM | HT-29 32.4 µM | HOP-62 74.1 µM | SK-MEL-28 26.1 µM | EKVX 77.1 µM | UACC-257 8.59 µM

C/C(CC(=O)Nc1ccc(NC(=O)/C(C)=N/NS(=O)(=O)c2ccc(C)cc2)cc1)=N\NS(=O)(=O)c1ccc(C)cc1
inactive: RXF 393 > 100 µM | SK-MEL-2 > 100 µM | CCRF-CEM > 10 µM | ACHN > 100 µM | SF-268 > 100 µM | SF-539 > 100 µM | HCT-116 > 100 µM | NCI-H460 > 100 µM | A549 > 100 µM | SK-MEL-5 > 100 µM | HT-29 > 100 µM | HOP-62 > 100 µM | SK-MEL-28 > 100 µM | EKVX > 100 µM | UACC-257 > 100 µM

Brc1cc2c(cc1Br)CN(c1ccccc1)C2
inactive: RXF 393 99.8 µM | SK-MEL-2 > 100 µM | SNB-19 > 100 µM | CCRF-CEM > 100 µM | ACHN > 100 µM | SF-268 > 100 µM | SF-539 > 100 µM | HCT-116 > 100 µM | NCI-H460 > 100 µM | A549 > 100 µM | SK-MEL-5 > 100 µM | HT-29 > 100 µM | HOP-62 > 100 µM | SK-MEL-28 > 100 µM | EKVX > 100 µM | UACC-257 > 100 µM

CCc1cc2c(O)c(c1)Cc1cc(CC)cc(c1O)Cc1cc(CC)cc(c1O)Cc1cc(CC)cc(c1O)Cc1cc(CC)cc(c1O)Cc1cc(CC)cc(c1O)Cc1cc(CC)cc(c1O)C2
inactive: RXF 393 16.9 µM | SK-MEL-2 > 100 µM | SNB-19 22.1 µM | CCRF-CEM > 100 µM | ACHN > 100 µM | SF-268 > 100 µM | SF-539 > 100 µM | HCT-116 > 100 µM | NCI-H460 > 100 µM | A549 > 100 µM | SK-MEL-5 > 100 µM | HT-29 > 100 µM | HOP-62 > 100 µM | SK-MEL-28 > 100 µM | EKVX > 100 µM | UACC-257 > 100 µM

NC(CNc1ccc(O)cc1)C(=O)O (centres undefined)
inactive: RXF 393 > 100 µM | SK-MEL-2 60.4 µM | SNB-19 > 100 µM | CCRF-CEM 33.6 µM | SR 87.9 µM | ACHN 57.8 µM | SF-268 > 100 µM | HCT-116 > 100 µM | NCI-H460 > 100 µM | A549 > 100 µM | SK-MEL-5 > 100 µM | HT-29 > 100 µM | HOP-62 > 100 µM | SK-MEL-28 > 100 µM | EKVX > 100 µM | UACC-257 > 100 µM

N=C(N)NS(=O)(=O)c1ccc(NC(=O)c2cccc3c(Nc4ccc(S(N)(=O)=O)cc4)c4ccccc4nc23)cc1
inactive: RXF 393 > 100 µM | SK-MEL-2 > 100 µM | SNB-19 > 100 µM | CCRF-CEM > 100 µM | ACHN > 100 µM | SF-268 > 100 µM | SF-539 > 100 µM | NCI-H460 > 100 µM | A549 > 100 µM | SK-MEL-5 > 100 µM | HT-29 > 100 µM | HOP-62 > 100 µM | SK-MEL-28 > 100 µM | EKVX > 100 µM | UACC-257 > 100 µM

O=S1OC(c2ccccc2)(c2ccccc2)C(c2ccccc2)(c2ccccc2)O1
inactive: RXF 393 > 72.1 µM | SNB-19 > 100 µM | CCRF-CEM 7.01 µM | SR 8.93 µM | ACHN 41.7 µM | SF-268 > 91.4 µM | SF-539 > 100 µM | HCT-116 4.61 µM | NCI-H460 > 30.1 µM | A549 40 µM | SK-MEL-5 15.4 µM | HT-29 7.36 µM | HOP-62 > 100 µM | SK-MEL-28 > 100 µM | EKVX 48.3 µM | UACC-257 46.6 µM

CCCCCCCC(=O)OCC(C[As](=O)(O)O)OC(=O)CCCCCCC (centres undefined)
inactive: RXF 393 5.01 µM | SNB-19 14.8 µM | CCRF-CEM 6.49 µM | SR 16.6 µM | ACHN 16.9 µM | SF-268 14.9 µM | SF-539 14.1 µM | HCT-116 16.7 µM | A549 23 µM | SK-MEL-5 18.1 µM | HT-29 17.1 µM | HOP-62 20.3 µM | SK-MEL-28 15.7 µM | EKVX 18.3 µM | UACC-257 14.8 µM
